“Also recorded” adds a separate entry of the source. Numbered stars: 1 amine (or outer) side, 2 acyl side, 3 side chain; on linkers, the order of the positions; unused ones are H or OH. Bridge positions count the residues as written; N and C are the ends. Square brackets hold non-standard residues; d marks the D form. Peptide text beside a SMILES is read from it. I, II: the chains in the order shown. Actinocin(9to1) = Cc1c2oc3c(C)ccc(C(=O)[*:1])c3nc-2c(C(=O)[*:2])c(N)c1=O; NMeV = CN[C@H](C(=O)O)C(C)C; Sar = CNCC(=O)O
How the values were obtained:
[1] = test system: axon degeneration of DRG neurons following NGF withdrawal; experiment: Campenot chamber localized axon degeneration after NGF withdrawal (Tuj1 immunostaining); type: cell-based, mouse; settings: for axon degeneration due to NGF deprivation, inhibitor applied to the axon (axon inhibition): inhibitor in axon compartment, 28 hours NGF deprivation of axons, anti-NGF antibody 50 μg/ml; for axon degeneration due to NGF deprivation, inhibitor applied to the cell body (cell body inhibition): inhibitor in cell body compartment with 25 ng/ml NGF, axons deprived of NGF
Description: Campenot chambers were used to perform the following experiments which allow for the separation of somal and axonal environments, and permit the induction of localized degeneration (see FIG. 1 and, e.g., Zweifel et al., Nat. Rev. Neurosci. 6(8):615-625, 2005). In such chambers, axon degeneration is localized and proceeds without apoptosis.
Mouse laminin (5 μg/ml in sterile filtered water; Invitrogen) was added to PDL coated 35 mm dishes (BD Biosciences) and they were incubated for 1 hour at 37° C., followed by two rinses in SQ water. The dishes were vacuum-dried and then air-dried in a laminar flow hood for 15 minutes. Prepared dishes were then scored with a pin rake (Tyler Research). Fifty microliters of NBM+MC solution containing NGF was applied across the resulting score tracks. The NBM+MC solution was made as follows: 1750 mg of methylcellulose was combined with 480 ml of Neurobasal (Invitrogen), to which was added 4.5 ml penicillin/streptomycin, 7.5 ml L-glutamine, and 10 ml B-27 serum-free supplement (Invitrogen). The solution was mixed for one hour at room temperature, overnight at 4° C., and one further hour at room temperature. The solution was then filter sterilized, and 50 ng/ml NGF (Roche) was added prior to use. High vacuum grease (VWR) was added to each Teflon divider under a dissection scope. The laminin coated PDL dishes were inverted and dropped onto the Teflon divider, with additional pressure added by use of a toothpick in the non-track-containing regions. Dishes were incubated for 1 hour at 37° C. Five hundred microliters of NBM+MC (50 ng/ml NGF) solution was added to each of the side compartments, and a grease barrier was added in front of the center cell slot.
Free E13.5 spinal cords were dissected from mouse embryos and placed into NBM+MC (25 ng/ml NGF) solution. DRGs were detached from the spinal cord with a tungsten needle. An NBM+MC-lubricated P200 pipette was used to move DRGs into a 1.5 ml tube. DRGs were pelleted with a tabletop centrifuge for 30 seconds. The supernatant was discarded and 0.05% Trypsin/EDTA (cold) was added. The pellet was resolubilized with a pipette and incubated at 37° C. for 15 minutes with constant agitation (650 RPM). The sample was again centrifuged and the supernatant discarded. The pellet was resuspended in warm NBM+MC (50 ng/ml NGF) solution and triturated with a flamed glass pipette 20 times, followed by trituration with a fire-bored glass pipette another 20 times. The samples were again centrifuged and the resulting pellets were resuspended in 0.5 ml NBM+MC (50 ng/ml NGF) solution. The cells were diluted to a final concentration of 2.5×10^6 cells/ml. The cell suspensions were loaded into a 1 ml syringe with a 22 gauge needle. The center slot of the Campenot divider was filled using the syringe (to a volume of at least 50 μl). The Campenot chamber was incubated overnight at 37° C. 2.5 ml NGF+MC (50 ng/ml NGF) solution was added to the center compartment and the grease gate was removed. The outer medium (cell body compartment) was replaced after three days with 2.5 ml NBM+MC medium (with 25 ng/ml NGF).
After five days in culture, the axonal compartment was washed three times with warmed NBM+MC (no NGF) solution. After the third wash, 500 μl NBM+MC (no NGF) solution was added to the axon compartment in combination with either 0.5% DMSO or an inhibitor. The cell body compartment was replaced with 2.5 ml NBM+MC medium (with 25 ng/ml NGF) containing either 0.5% DMSO or inhibitor. Fifty μg/ml anti-NGF antibody was added to the axonal compartment. Another axon compartment was maintained in NGF as a control.
After 28 hours of NGF deprivation for axons, and 25 hours of NGF deprivation for cell bodies, 8% PFA/30% sucrose solution was added directly to the culture medium at a 1:1 dilution and incubated for 30 minutes. The Teflon divider was removed after the first 15 minutes of addition. […]

[2] = test system: dleu2 and tbx6 expression; experiment: Time course microarray analysis of neurons in Campenot chambers undergoing axon loss; type: cell-based, mouse; settings: 30 μM inhibitor in outer compartment, NGF deprivation for 6 and 12 hours
Description: Based on the experiments described above, glycogen synthase kinase-3 (GSK-3) was identified as being a regulator of a genetic axon degeneration program acting specifically in the cell body to regulate distal axon degeneration. To identify GSK3 regulated axon degeneration genes, time course microarray analysis was performed on neurons selectively undergoing […], with or without GSK-3 inhibition.
Briefly, neurons were isolated and cultured in Campenot chambers as previously described. Campenot chambers were set up with 50 μM 5-fluoro-2′-deoxyuridine/uridine (both Sigma) added to the culture medium to reduce contamination by non-neuronal cells. On day 5, both axon compartments were washed three times with NGF-free medium and on the fourth wash, replaced with medium containing NGF (control) or NGF antibodies (50 μg/ml) (911, Genetech). The outer compartment was replaced with medium containing 30 μM of the GSK3 inhibitor ARA (EMD Biosciences) or 0.3% DMSO. RNA was extracted from neurons with or without GSK3 ARA treatment which had been cultured with NGF or deprived of NGF for 6 and 12 hours. RNA was prepared with Trizol® (Invitrogen) followed by the RNeasy® Micro Kit processing with DNAse I treatment (Qiagen) as described in Appendix C of the RNeasy® Micro Kit manual. For each condition, five Agilent Whole Mouse Genome microarray chips were used with single amplification.

| SMILES | axon degeneration due to NGF deprivation, inhibitor applied to the axon (axon inhibition) [1] | axon degeneration due to NGF deprivation, inhibitor applied to the cell body (cell body inhibition) [1] | axon degeneration due to NGF deprivation, inhibitor applied to the axon (axon inhibition) ([1]; listed as actinomycin D) | axon degeneration due to NGF deprivation, inhibitor applied to the cell body (cell body inhibition) ([1]; listed as actinomycin D) | overexpression of dleu2 and tbx6 in neurons deprived of NGF [2] | overexpression of dleu2 and tbx6 in neurons deprived of NGF ([2]; listed as GSK3.ARA) |
| --- | --- | --- | --- | --- | --- | --- |
| N#C/C(=C\c1ccc(O)c(O)c1)C(=O)NCCCc1ccccc1 [AG555] | exhibited less degeneration; also recorded: prevented axonal degradation | failed to prevent degeneration; also recorded: did not provide the same protective effect |  |  |  |  |
| Cc1c2oc3c(C)ccc(C(=O)N[C@@H]4C(=O)N[C@H](C(C)C)C(=O)N5CCC[C@H]5C(=O)N(C)CC(=O)N(C)[C@@H](C(C)C)C(=O)O[C@@H]4C)c3nc-2c(C(=O)N[C@@H]2C(=O)N[C@H](C(C)C)C(=O)N3CCC[C@H]3C(=O)N(C)CC(=O)N(C)[C@@H](C(C)C)C(=O)O[C@@H]2C)c(N)c1=O [Act D, actinomycin D] (I: T[dV]P[Sar][NMeV] / II: T[dV]P[Sar][NMeV]; ester I:1-I:C, II:1-II:C; linker I:N-II:N via Actinocin(9to1)) | did not prevent axonal degradation | axon degradation due to NGF deprivation was reduced | did not provide the same protective effect | prevented axonal degeneration |  |  |
| COc1ccc(CNC(=O)Nc2ncc([N+](=O)[O-])s2)cc1 [GSK3 ARA] |  |  |  |  | overexpression of these genes is not observed at any time point | Increased expression of dleu2 and tbx6 is not observed |
| COc1nccc(-c2c(-c3ccc(F)cc3)ncn2C2CCC(O)CC2)n1 (stereo not drawn) [SB239] | exhibited less degeneration; also recorded: prevented axonal degradation | failed to prevent degeneration; also recorded: did not provide the same protective effect |  |  |  |  |
| O=C1NC(=O)C(c2ccccc2[N+](=O)[O-])=C1Nc1ccc(O)c(Cl)c1 [SB415] | did not prevent axonal degradation; also recorded: did not provide the same protective effect | axon degradation due to NGF deprivation was reduced; also recorded: prevented axonal degeneration |  |  |  |  |
